Experiments:
PBMCs = assay: T cell recall assay (qPCR and intracellular staining); assay type: cell-based, human
Experimental: Total PBMCs were plated into 96-well round-bottom plates at 0.5×10^6 cells/well and were stimulated with anti-CD3/CD28 Dynabeads (Gibco Life Technologies) at a bead/cell ratio of 0.2:1 in the presence of compound 005 (10 μM) or vehicle (DMSO) for 6 hours to induce polyclonal primary responses. To induce recall responses, cells were stimulated with beads for two days, allowed to rest for eight days in medium supplemented with IL-2 (10 U/mL) and re-stimulated with anti-CD3/CD28 beads for the last 6 hours in the presence of compound 005 ([…]) or vehicle. Expression of Th1-, Th2-, Th17-, and Treg-associated cytokines and transcription factors was assessed by qPCR. For intracellular staining, cells were re-stimulated for 10 hours with anti-CD3/CD28 beads, and Brefeldin A (10 μg/mL, Sigma) was added to the medium 4 hours after the start of re-stimulation. Dead cells were excluded using the LIVE/DEAD® Fixable Aqua Dead Cell Stain Kit (Life Technologies). Subsequently, cells were surface-stained with CD3-BUV395, CD4-BUV737, CD8-Violet650 (all three from BDHorizon), and CD161-PE-Cy7 (from Biolegend) at 4° C. for 30 min, followed by incubation with Fixation/Permeabilization working solution (eBioscience), washed with Permeabilization Buffer and stained with IL-17A-PE and IFNγ-BV711 (both from BD Biosciences). Cells were resuspended in ice-cold FACS buffer (0.5% BSA, 2 mM EDTA and 50 U/mL penicillin/streptomycin in PBS). Flow cytometry data were collected on BD FACSCelesta™ and analyzed using FlowJo™ cell analysis software (FlowJo, LLC).
Total RNA was extracted from PBMCs using the RNeasy Micro Kit (Qiagen) according to the manufacturer's protocol. RNA was processed for cDNA synthesis (Fermentas) and analyzed by qPCR with TaqMan gene expression assays for IFNG (Hs00989291_m1), IL-2 (Hs00174114_m1), TNF (Hs00174128_m1), TBX21 (Hs00203436_m1), IL-4 (Hs00174122_m1), GATA3 (Hs00231122_m1), IL-17A (Hs00174383_m1), IL-17F (Hs00369400_m1), IL-21 (Hs00222327_m1), IL-22 (Hs01574154_m1), RORC (Hs01076122_m1), IL-10 (Hs00961622_m1), FOXP3 (Hs01085834_m1), POU2AF1 (Hs01573371_m1) (Thermofisher) using Real-Time PCR QuantStudio3 PCR System (Applied Biosystems). Expressions of all genes were normalized to the expression of GAPDH (4310884E) as housekeeping gene and presented as fold change relative to the reference sample.

[1] = molecular target: T1, POU domain of OCT1 (POU1) (Homo sapiens, UniProt P14859); assay: Thermal shift assay (TSA); assay type: binding; conditions: compound 10 μM, POU1 5 μM
T1 construct: 6xHis (pET28 N-terminal histidine tag) (N); made in house; host or cells: E. coli BL21
T1 sequence (P14859 280-438): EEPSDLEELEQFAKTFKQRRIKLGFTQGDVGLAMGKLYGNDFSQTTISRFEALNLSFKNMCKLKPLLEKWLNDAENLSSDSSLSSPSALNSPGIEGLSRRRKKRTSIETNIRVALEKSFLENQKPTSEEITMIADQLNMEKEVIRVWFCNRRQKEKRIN
Experimental: Following primers were used for the amplification:
POU1 and BOB1 proteins (each at a final concentration 5 μM), compound 005 (final concentration 10 μM), and 1× ProteOrange fluorescent dye (Lumiprobe, Russia) were mixed in triplicates in 100 μL of 0.1 M phosphate buffered saline pH 7.4 per and pipetted into 96-well 0.2-mL thin-wall PCR plates (Roche Life Science, Switzerland) sealed with optical-grade sealing film. Fluorescence data were acquired on a LightCycler® 96 Real Time PCR Instrument (Roche Life Science, Switzerland) with an excitation range of 470-533 nm. The fluorescence emission signal at […] was measured for data analysis. The temperature was held for 30 sec per degree from 37 to 98° C. (ramp rate of […]). The derivatives of the fluorescence signal as function of the temperature were used for further analysis.

HEK293 cells = assay: MTT assay; assay type: cell-based; conditions: data not shown

SMILES: Cc1ccc(NC(=O)C2CN(c3nc(NCCCc4ccc(F)cc4)nc(NCCC(=O)O)n3)c3ccccc3O2)cc1Cl (stereo not shown) [compound 005, 3-((4-(2-((3-chloro-4-methylphenyl)carbamoyl)-2,3-dihydro-4H-benzo[b][1,4]oxazin-4-yl)-6-((3-(4-fluorophenyl)propyl)amino)-1,3,5-triazin-2-yl)amino)propanoic acid]
- TNF expression (PBMCs; initial activation, 6 hours-stimulated cells, 10 μM, data not shown): significant decrease
- IL-17A mRNA, median percentage decrease (PBMCs; re-stimulated (recall) cells): 43%
- IL-17F mRNA, median percentage decrease (PBMCs; re-stimulated (recall) cells): 27%
- expression of IL-17A by CD4+ T cells (protein, intracellular staining) (PBMCs; re-stimulated cells): suppressed
- increase of POU1 melting temperature [1]: about 4 °C
- toxicity for HEK293 cells (HEK293 cells; concentrations up to 40 μM): non-toxic or mildly toxic
- concentration from which inhibitory effect is observed in MTT assay (HEK293 cells): ≥ 10 µM

Source: US20250177412A1, “SMALL-MOLECULE INHIBITORS TARGETING THE BOB1/OCT1 INTERFACE” (NANTES UNIVERSITE, priority 2022, published 2025)
